Series [1] is described as follows: Superoxide scavenging assay (pyrogallol autoxidation). The note with it: mean ± SEM of three experiments; pyrogallol autoxidation, 325 nm. As for the experimental part: The improved pyrogallol autoxidation method was used to determine O2^−. RSA of all synthesized compounds as previously described. Briefly, 50 µL of test compounds (12.5, 25, 50,100, and 200 µg/mL) was added to 2900 µl of […] Tris HCl buffer (0.05 M, pH 7.4) containing 1-mM Na2EDTA. Next, 50 µL of 60-mM pyrogallol in1mM HCl had been thoroughly mixed with the mixture. The absorbance of the reaction mixture was measured at A325 nm every 30 s for 5 min. O2^− RSA was expressed by the oxidation degree of a test group in comparison to that of the control. The absorbance at 325 nm was measured against the Tris-HCl buffer every 30 s for 5 min. The percentage of scavenging effect was calculated using the following equation: O2^− radical scavenging %=[(ΔA325, control/T)−(ΔA325nm, sample/T)/ΔA325nm, control/T]×100 where ΔA325 nm, control is the increase in A325 nm of the reaction mixture without the sample and ΔA325 nm, sample is that for the mixture with the sample; T=5 min. The experiments were performed in triplicate.

Series [2] deals with Catalase (CAT) activity in liver. The series is described as follows: In vivo catalase (CAT) activity in liver homogenate. Also noted: species or system male Wistar albino rats. The note with it: rat liver; 100 mg/kg orally for 3 days; mean ± SEM, n = 6. As for the experimental part:
(§1) The complete progress of the experiment was conducted using male Wistar albino rats (200–250 g), delivered by the Institutional Breeding House, Egypt, reared and maintained in the animal house of the institution. The animals had free access to food and water ad libitum and maintained in a controlled environment under standard conditions of temperature and humidity with an alternating 12 h light and dark cycle for about a week for acclimatization. The protocol of the study was approved by the Animal Ethics Committee of the Faculty of Pharmacy, Helwan University (ethical code number: 05A2019; date: October 2019). The study was conducted in accordance with the EC, directive 86/609/EEC for animal experiments.
(§2) Rats are weighed at the beginning and at the end of experiment. Fifty-four male albino rats (n=6) were divided into nine different groups. Group I served as a control group and treated with the same volume vehicle only. Group II treated with 100 mg/kg of Ascorbic acid as standard antioxidant drug. Groups (III–IX) orally administered 100 mg/kg of compounds 3a, 4e, 5b, 5c, 6a, 6c, 6e, respectively, for 3 days. The animals were sacrificed by cervical dislocation 24 h after the last dose. Sacrificing is carried out at the same time of the day, to avoid the circadian variation in the level of tissue GSH[53]. Each liver was excised, weighed, rinsed in ice-cold normal saline and frozen for not more than 72 h await analysis of endogenous antioxidant status (GSH levels and CAT activity) and lipid peroxide concentrations. For performing biochemical assays, a 10% liver homogenate in 10 mM phosphate buffer was prepared using tissue homogeniser (Glas-Col®, Cat no.099C K6424, TERRE HAUTE, USA).
Catalase activity in 10% liver homogenates was determined spectrophotometrically according to Sinha AK[54]. The decrease in absorbance at 240 nm due to H2O2 decomposition was measured and the results were expressed in U/mg tissue.

The nature of series [3]: DPPH radical scavenging assay. The following applies: mean ± SEM of three experiments; 30 min, 517 nm. As for the experimental part: The DPPH scavenging activity of all synthesized compounds was measured as previously described by Nahar et al.[48] with some modifications. Briefly, 100 µL of different concentrations of the tested compounds (12.5, 25, 50, 100, and 200 µg/mL) were pipetted into a 96-well plate. Then, 100 µL of 100-µM DPPH methanolic solution were added to each well and the plate was incubated protected from light at room temperature for 30 min. The absorbance of the solution was measured at λ517 nm.[49] Ascorbic acid was used as the positive control while DMSO was the negative control. The percentage of DPPH scavenging activity was calculated according to the following equation: % of DPPH scavenging=[(Acontrol–Asample)/Acontrol] ×100, where Acontrol is the absorbance of the control reaction (with all reagents except the test compound), and Asample is the absorbance of the test sample. […] All tests were performed in triplicates.

Series [4] in a line: NO scavenging assay (sodium nitroprusside / Griess reagent). The following applies: mean ± SEM of three experiments; 90 min, 546 nm. As for the experimental part:
The NO scavenging activity of all synthesized compounds was measured as previously described by Ho et al.[50] Briefly, 50 µL of different concentrations of the tested compounds (12.5, 25, 50,100, and 200 µg/mL) were pipetted into a 96-well plate. Then, 50 µL of 10-mM sodium nitroprussides dissolved in phosphate-buffered saline PBS (pH 7.4) were added to each well and the plate was incubated for 90 min at room temperature. Next, an equal volume of Griess reagent (1% of sulphanilamide and 0.1% of naphthyl ethylene diamine in 2.5% […]) was added to each well to measure the nitrite content. The absorbance of the formed pink-coloured chromophore was measured at λ 546 nm. DMSO and ascorbic acid were used as the negative and positive control, respectively. All tests were performed in triplicate. The percentage of NO scavenging activity was calculated according to the following equation: % of NO scavenging=[(Acontrol−Asample)/Acontrol]×100 where Acontrol is the absorbance of the control reaction (with all reagents except the test compound), and Asample is the absorbance of the test sample.
On the technique in general: Griess reagent forms a coloured azo dye with nitrite.

Series [5] deals with lipid peroxidation (MDA) in liver. The series is described as follows: In vivo lipid peroxide level (TBARS/MDA) in liver homogenate. More on the design: species or system male Wistar albino rats. The following applies: rat liver; 100 mg/kg orally for 3 days; mean ± SEM, n = 6. As for the experimental part:
as §1, §2
Lipid peroxidation level in the liver homogenates was determined as thiobarbituric acid reactive substances (TBARS) by measuring malondialdehyde ‘MDA’ level according to Mihara and Uchiyama[56]. Briefly, 0.5 mL supernatant of tissue homogenate was mixed with 0.6% thiobarbituric acid (TBA) and 1% orthophosphoric acid solution, and heated in a boiling water bath for 45 min. The pink-coloured chromogen formed by the reaction of TBA with MDA was extracted by n-butanol and measured at 535 nm. The results were expressed as nmol/g tissue.

The subject of series [6] is glutathione (GSH) in liver. The series is described as follows: In vivo reduced glutathione (GSH) level in liver homogenate. Also noted: species or system male Wistar albino rats. The following applies: rat liver; 100 mg/kg orally for 3 days; mean ± SEM, n = 6. As for the experimental part:
as §1, §2
Levels of glutathione (GSH) in liver homogenates were assayed by the deproteinization of tissue homogenate. Then […] supernatant was mixed with di-potassium hydrogen phosphate buffer (pH 8) and 0.4% 5,5′-dithiobis-2-nitrobenzoic acid (Ellman’s reagent). The yellow-coloured substance formed was measured at 412 nm. The results were expressed as GSH mg/g tissue.

Details of series [7]: method as in PMID 24752861. The note with it: at 10^−4 M concentration; cited from earlier work.
The next series concerns the target T1, Soybean 15-LOX enzyme (Glycine max, UniProt P08170).
T1 construct: purchased Cayman Chemical 760700
T1 sequence (P08170 1-839): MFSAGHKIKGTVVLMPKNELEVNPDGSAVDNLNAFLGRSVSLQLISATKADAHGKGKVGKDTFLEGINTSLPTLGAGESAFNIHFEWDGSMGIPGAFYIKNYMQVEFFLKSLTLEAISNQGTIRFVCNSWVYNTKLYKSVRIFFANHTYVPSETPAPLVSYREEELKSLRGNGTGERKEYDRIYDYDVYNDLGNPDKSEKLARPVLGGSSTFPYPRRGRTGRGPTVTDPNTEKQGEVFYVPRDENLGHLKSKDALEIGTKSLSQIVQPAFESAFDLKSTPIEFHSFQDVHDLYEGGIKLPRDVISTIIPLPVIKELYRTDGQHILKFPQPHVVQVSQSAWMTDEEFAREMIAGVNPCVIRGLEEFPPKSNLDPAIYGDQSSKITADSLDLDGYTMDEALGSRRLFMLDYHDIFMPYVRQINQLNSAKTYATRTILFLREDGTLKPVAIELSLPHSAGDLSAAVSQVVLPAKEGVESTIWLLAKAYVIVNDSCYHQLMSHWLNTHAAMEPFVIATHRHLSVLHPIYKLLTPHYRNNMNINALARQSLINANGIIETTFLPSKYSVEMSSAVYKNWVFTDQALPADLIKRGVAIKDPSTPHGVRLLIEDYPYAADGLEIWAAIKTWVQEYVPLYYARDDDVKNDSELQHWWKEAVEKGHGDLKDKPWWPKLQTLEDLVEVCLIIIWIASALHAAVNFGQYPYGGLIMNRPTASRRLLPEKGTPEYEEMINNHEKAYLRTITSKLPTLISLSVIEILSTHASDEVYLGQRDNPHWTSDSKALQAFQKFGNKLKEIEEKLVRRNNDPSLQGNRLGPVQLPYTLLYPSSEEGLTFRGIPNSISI
Nature of the series: In vitro lipoxygenase inhibition (Cayman lipoxygenase inhibitor screening assay kit). The following applies: mean ± SEM of three experiments; substrate arachidonic acid. It counts as biochemical. As for the experimental part:
The assay was performed using Cayman’s lipoxygenase inhibitor screening assay kit (Catalog No. 760700, Cayman Chemical, USA) according to the manufacturer’s instructions. Briefly, 90 µL of 15-LOX was pipetted into a 96-well plate. Next, 10 µL of test compound at concentrations (2.5, 5.0 and 10 µM) dissolved in DMSO were added to each well. The reaction was initiated by adding 10 µL substrate (AA) and the plate was placed on a shaker for at least 5 minutes. Finally, 100 µL of chromogen (prepared according to manufacturer’s instructions) was added to each well to stop enzyme catalysis and develop the reaction. 100 µL of Assay buffer (0.1 M Tris-HCl, pH7.4) was used in blank wells. […] The absorbance of the solution was measured at λ 490–500 nm. The percentage inhibition was calculated according to the following equation: % inhibition =[(IA−Ainhibitor sample)/IA]×100 where (IA) is the 100% initial activity and (Ainhibitor sample) is the absorbance of the test sample. Dose–response curve was plotted between % inhibition and the drug concentration. The non-linear dose–response curve was used for calculating drug concentration showing 50% enzyme inhibition.

The values below come from article PMC7170299, “Design, synthesis, molecular modelling and biological evaluation of novel 3-(2-naphthyl)-1-phenyl-1H-pyrazole derivatives as potent antioxidants and 15-Lipoxygenase inhibitors” (Journal of Enzyme Inhibition and Medicinal Chemistry, 2020).

A word on the IC50: it is the point on the concentration scale where inhibition reaches its midpoint. For orientation: melting point means the temperature of the solid-liquid transition.

Regarding `O=C1O[C@H]([C@@H](O)CO)C(O)=C1O` [Ascorbic acid, reference compound], the “Superoxide IC50” value in series [1] was determined as 124.99 ± 1.32 µg/mL. Besides, the CAT in series [2] turned out to be 42.56 ± 3.76 U/mg tissue. The “DPPH IC50” value in series [3] came to 13.67 ± 0.97 µg/mL. The “NO IC50” value in [4] is recorded as 37.9 ± 1.31 µg/mL. In series [5], this compound displayed a TBARS of 0.392 ± 0.07 nmol/g tissue. This compound also returned a GSH in [6] of 8.25 ± 0.45 mg/g tissue.

For the compound `Cc1cc(C(C)(C)C)c(O)c(C(C)(C)C)c1` [BHT7, butylated hydroxy toluene], the DPPH scavenging activity in [7] was 20%.

For `NC(=S)N1N=C(c2ccc(Cl)cc2)CC1c1cn(-c2ccccc2)nc1-c1ccc2ccccc2c1` (stereo not shown) [Compound 6d], the melting point was 186 to 187 °C. Besides, in series [1], the “Superoxide IC50” value is reported as above 200 µg/mL. At Soybean 15-LOX enzyme, this compound came in with an IC50 of 1670 ± 30 nM. The “DPPH IC50” value in series [3] is above 200 µg/mL. The “NO IC50” value in [4] amounted to 148.08 ± 1.36 µg/mL.

For the compound `NS(=O)(=O)c1ccc(N2N=C(c3ccco3)CC2c2cnn(-c3ccccc3)c2)cc1` (stereo not shown) [XI], the DPPH scavenging activity in series [7] is recorded as 19%.
